This is an account of results in US7718808B2, “Thiazole derivatives” (Kyowa Hakko Kirin Co., Ltd., priority 2003, dated 2010).

Some results are limits rather than exact numbers.

For the compound `COC1CCN(CC(=O)Nc2nc(-c3ccco3)c(C(=O)c3ccccn3)s2)CC1.Cl`, the melting point (usually the temperature of the solid-liquid transition) is 220 to 232 °C (dec.).

With `CCN(CC)C(=O)C1CCCN(CC(=O)Nc2nc(-c3ccco3)c(C(=O)c3ccccn3)s2)C1.Cl` (stereo not drawn), the melting point was in the range of 180 to 185 °C.

`CN1CCN(CC(=O)Nc2nc(-c3ccco3)c(C(=O)c3ccccn3)s2)CC1=O.Cl` returned a melting point of 170 to 188 °C.

For `O=C(Nc1nc(-c2ccco2)c(-c2ccncc2)s1)c1ccc(F)cc1` [Compound 102, 4-Fluoro-N-[4-(2-furyl)-5-(4-pyridyl)thiazol-2-yl]benzamide], the melting point was 270 to 300 °C (dec.).

As for `COc1ccc(C(=O)Nc2nc(-c3ccco3)c(-c3ccncc3)s2)cc1` [Compound 103, N-[4-(2-Furyl)-5-(4-pyridyl)thiazol-2-yl]-4-methoxybenzamide], the melting point lay in the range of 235 to 245 °C.

Compound `CC(C)(C)C(=O)Nc1nc(-c2ccco2)c(-c2ccncc2)s1` [Compound 104, N-[4-(2-Furyl)-5-(4-pyridyl)thiazol-2-yl]-2,2-dimethylpropanamide] came in with a melting point of 240 to 241 °C.

Compound `COc1cc(C(=O)Nc2nc(-c3ccco3)c(-c3ccncc3)s2)ccn1` [Compound 105, N-[4-(2-Furyl)-5-(4-pyridyl)thiazol-2-yl]-2-methoxypyridine-4-carboxamide] gave a melting point of 285 to 288 °C.

The compound `O=C(Nc1nc(-c2ccco2)c(-c2ccncc2)s1)c1ccnc(Cn2ccnc2)c1` [Compound 108, N-[4-(2-Furyl)-5-(4-pyridyl)thiazol-2-yl]-2-(imidazol-1-ylmethyl)pyridine-4-carboxamide] gave a melting point of 239 to 250 °C.

With `CN(C)CCN(C)Cc1cc(C(=O)Nc2nc(-c3ccco3)c(-c3ccncc3)s2)ccn1` [Compound 109, 2-{N-[2-(Dimethylamino)ethyl]-N-methylaminomethyl}-N-[4-(2-furyl)-5-(4-pyridyl)thiazol-2-yl]pyridine-4-carboxamide], the melting point was in the range of 203 to 205 °C.

Compound `COCCN(C)Cc1cc(C(=O)Nc2nc(-c3ccco3)c(-c3ccncc3)s2)ccn1` [Compound 110, N-[4-(2-Furyl)-5-(4-pyridyl)thiazol-2-yl]-2-[N-(2-methoxyethyl)-N-methylaminomethyl]pyridine-4-carboxamide] showed a melting point of 195 to 197 °C.

In turn, `O=C(Nc1nc(-c2ccco2)c(-c2ccncc2)s1)c1ccnc(CN2CCC(O)CC2)c1` [Compound 111, N-[4-(2-Furyl)-5-(4-pyridyl)thiazol-2-yl]-2-(4-hydroxypiperidinomethyl)pyridine-4-carboxamide] had a melting point of 203 to 208 °C.

`O=C(Nc1nc(-c2ccco2)c(-c2ccncc2)s1)c1cc[nH]c(=O)c1` [Compound 112, N-[4-(2-Furyl)-5-(4-pyridyl)thiazol-2-yl]-2-oxo-1,2-dihydropyridine-4-carboxamide] returned a melting point of 277 to 281 °C.

For the compound `O=C(Nc1nc(-c2ccco2)c(-c2ccncc2)s1)c1ccn(Cc2ccccc2)c(=O)c1` [Compound 113, 1-Benzyl-N-[4-(2-furyl)-5-(4-pyridyl)thiazol-2-yl]-2-oxo-1,2-dihydropyridine-4-carboxamide], the melting point fell in the range of 244 to 248 °C.

In turn, `COc1ccc(-c2sc(NC(=O)c3ccccc3)nc2-c2ccco2)cc1` [Compound 119, N-[4-(2-Furyl)-5-(4-methoxyphenyl)thiazol-2-yl]benzamide] registered a melting point of 90 to 98 °C.

The compound `Cn1ccc(-c2sc(NC(=O)c3ccncc3)nc2-c2ccco2)cc1=O` [Compound 123, N-[4-(2-Furyl)-5-(1-methyl-2-oxo-1,2-dihydropyridine-4-yl)thiazol-2-yl]pyridine-4-carboxamide] yielded a melting point of 280 to 282 °C.

The compound `CCn1ccc(-c2sc(NC(=O)c3ccncc3)nc2-c2ccco2)cc1=O` [Compound 124, N-[5-(1-Ethyl-2-oxo-1,2-dihydropyridin-4-yl)-4-(2-furyl)thiazol-2-yl]pyridine-4-carboxamide] returned a melting point of 245 to 248 °C.

`O=C(Nc1nc(-c2ccco2)c(-c2ccn(Cc3ccccc3)c(=O)c2)s1)c1ccncc1` [Compound 125, N-[5-(1-Benzyl-2-oxo-1,2-dihydropyridin-4-yl)-4-(2-furyl)thiazol-2-yl]pyridine-4-carboxamide] came in with a melting point of 137 to 140 °C.

Turning to `Cn1cc(-c2sc(NC(=O)c3ccncc3)nc2-c2ccco2)ccc1=O` [Compound 126, N-[4-(2-Furyl)-5-(1-methyl-2-oxo-1,2-dihydropyridin-5-yl)thiazol-2-yl]pyridine-4-carboxamide], the melting point was 294 to 295 °C.

The compound `CCn1cc(-c2sc(NC(=O)c3ccncc3)nc2-c2ccco2)ccc1=O` [Compound 127, N-[5-(1-Ethyl-2-oxo-1,2-dihydropyridin-5-yl)-4-(2-furyl)thiazol-2-yl]pyridine-4-carboxamide] had a melting point of 285 to 289 °C.

`O=C(Nc1nc(-c2ccco2)c(-c2ccc(=O)n(Cc3ccccc3)c2)s1)c1ccncc1` [Compound 128, N-[5-(1-Benzyl-2-oxo-1,2-dihydropyridin-5-yl)-4-(2-furyl)thiazol-2-yl]pyridine-4-carboxamide] had a melting point of 215 to 218 °C.

Compound `CCn1c(-c2sc(NC(=O)c3ccncc3)nc2-c2ccco2)cccc1=O` [Compound 129, N-[5-(1-Ethyl-6-oxo-1,6-dihydropyridin-2-yl)-4-(2-furyl)thiazol-2-yl]pyridine-4-carboxamide] showed a melting point above 300 °C.

With `CCn1nc(-c2sc(NC(=O)c3ccncc3)nc2-c2ccco2)ccc1=O` [Compound 130, N-[5-(1-Ethyl-6-oxo-1,6-dihydropyridazin-3-yl)-4-(2-furyl)thiazol-2-yl]pyridine-4-carboxamide], the melting point lay within 235 to 239 °C.

In turn, `CC(C)(O)C(=O)Nc1nc(-c2ccco2)c(C(=O)c2ccccc2)s1` [Compound 137, N-[5-Benzoyl-4-(2-furyl)thiazol-2-yl]-2-hydroxy-2-methylpropanamide] yielded a melting point of 153 to 154 °C.

`O=C(c1ccccc1)c1sc(NC(=O)C2(O)CC2)nc1-c1ccco1` [Compound 138, N-[5-Benzoyl-4-(2-furyl)thiazol-2-yl]-1-hydroxycyclopropanecarboxamide] yielded a melting point of 202 to 205 °C.

On to `CN(C)Cc1cc(C(=O)Nc2nc(-c3ccco3)c(C(=O)c3ccccc3)s2)ccn1` [Compound 141, N-[5-Benzoyl-4-(2-furyl)thiazol-2-yl]-2-(dimethylaminomethyl)pyridine-4-carboxamide], for which the melting point was 205 to 209 °C.

Compound `O=C(Nc1nc(-c2ccco2)c(C(=O)c2ccccc2)s1)c1ccnc(CN2CCOCC2)c1` [Compound 144, N-[5-Benzoyl-4-(2-furyl)thiazol-2-yl]-2-(morpholinomethyl)pyridine-4-carboxamide] showed a melting point of 212 to 213 °C.

`COCCN(C)c1cc(C(=O)Nc2nc(-c3ccco3)c(C(=O)c3ccccc3)s2)ccn1` [Compound 145, N-[5-Benzoyl-4-(2-furyl)thiazol-2-yl]-2-[N-(2-methoxyethyl)-N-methylamino]pyridine-4-carboxamide] yielded a melting point of 145 to 147 °C.

On to `O=C(Nc1nc(-c2ccco2)c(C(=O)c2ccccc2)s1)c1ccnc(N2CCCCC2)c1` [Compound 146, N-[5-Benzoyl-4-(2-furyl)thiazol-2-yl]-2-piperidinopyridine-4-carboxamide], for which the melting point was 195 to 198 °C.

Turning to `Cn1cc(C(=O)Nc2nc(-c3ccco3)c(C(=O)c3ccccc3)s2)ccc1=O` [Compound 150, N-[5-Benzoyl-4-(2-furyl)thiazol-2-yl]-1-methyl-2-oxo-1,2-dihydropyridine-5-carboxamide], the melting point was in the range of 220 to 225 °C.

Compound `O=C(Nc1nc(-c2ccco2)c(C(=O)c2ccccc2)s1)c1ccc(=O)n(Cc2ccncc2)c1` [Compound 152, N-[5-Benzoyl-4-(2-furyl)thiazol-2-yl]-2-oxo-1-(pyridin-4-ylmethyl)-1,2-dihydropyridine-5-carboxamide] had a melting point of 270 to 275 °C.

Consider `O=C(Nc1nc(-c2ccco2)c(C(=O)c2ccccc2)s1)c1ccnnc1` [Compound 153, N-[5-Benzoyl-4-(2-furyl)thiazol-2-yl]pyridazine-4-carboxamide], for which the melting point lay within 225 to 248 °C.

Compound `CC(=O)Nc1nc(-c2ccco2)c(C(=O)c2ccccn2)s1` [Compound 188, N-[4-(2-Furyl)-5-(pyridin-2-ylcarbonyl)thiazol-2-yl]acetamide] had a melting point of 216 to 217 °C.

Turning to `CCCC(=O)Nc1nc(-c2ccco2)c(C(=O)c2ccccn2)s1` [Compound 189, N-[4-(2-Furyl)-5-(pyridin-2-ylcarbonyl)thiazol-2-yl]butanamide], the melting point is 148 to 149 °C.

As to `CC(C)(C)C(=O)Nc1nc(-c2ccco2)c(C(=O)c2ccccn2)s1` [Compound 190, N-[4-(2-Furyl)-5-(pyridin-2-ylcarbonyl)thiazol-2-yl]-2,2-dimethylpropanamide], the melting point is 186 to 187 °C.

Consider `CC1(C(=O)Nc2nc(-c3ccco3)c(C(=O)c3ccccn3)s2)CC1` [Compound 192, N-[4-(2-Furyl)-5-(pyridin-2-ylcarbonyl)thiazol-2-yl]-1-methylcyclopropanecarboxamide], for which the melting point fell in the range of 195 to 196 °C.

In turn, `O=C(c1ccccn1)c1sc(NC(=O)C2CCC2)nc1-c1ccco1` [Compound 193, N-[4-(2-Furyl)-5-(pyridin-2-ylcarbonyl)thiazol-2-yl]cyclobutanecarboxamide] yielded a melting point of 165 to 170 °C.

Take `O=C(c1ccccn1)c1sc(NC(=O)C2CCOCC2)nc1-c1ccco1` [Compound 194, N-[4-(2-Furyl)-5-(pyridin-2-ylcarbonyl)thiazol-2-yl]tetrahydropyran-4-carboxamide]: the melting point is 234 to 235 °C.

Compound `O=C(c1ccccn1)c1sc(NC(=O)C2CCN(Cc3cccnc3)CC2)nc1-c1ccco1` [Compound 197, N-[4-(2-Furyl)-5-(pyridin-2-ylcarbonyl)thiazol-2-yl]-1-(pyridin-3-ylmethyl)piperidine-4-carboxamide] displayed a melting point of 208 to 209 °C.

Regarding `O=C(c1ccccn1)c1sc(NC(=O)C2CCN(Cc3ccncc3)CC2)nc1-c1ccco1` [Compound 198, N-[4-(2-Furyl)-5-(pyridin-2-ylcarbonyl)thiazol-2-yl]-1-(pyridin-4-ylmethyl)piperidine-4-carboxamide], the melting point fell in the range of 240 to 241 °C.
